For orientation: IC50 means the concentration needed to halve the response being measured.

For series [1], the system named is the cell lines investigated.
Series [2] has as its system MCF-7 cells (breast adenocarcinoma). Type of series: cell-based, human. As to conditions: read-out: IC50 MCF-7.
Series [3] deals with MIA PaCa 2 cells (human pancreatic carcinoma). Format: cell-based. As to conditions: read-out: IC50 MIA PaCa 2.
The test system of the next series is DU-145 cells. Format: cell-based, human.
Series [4] deals with HFF-1 cells (normal human foreskin fibroblast). Type of series: cell-based. As to conditions: read-out: IC50 HFF-1.
For series [5], the system named is Hep G2 cells (human hepatocellular carcinoma). Format: cell-based. As to conditions: read-out: IC50 Hep G2.
Series [6] has as its system DU-145 cells (metastatic prostate carcinoma). Type of series: cell-based, human. As to conditions: read-out: IC50 DU-145.
Series [7] deals with PANC-1 cells (human pancreatic carcinoma). Type of series: cell-based. As to conditions: read-out: IC50 PANC-1.
In series [8] the test system is microtubule network in MCF-7 cells. Format: cell-based, human.

On to `OCCN(CCO)Cc1ccccn1` [Complex L1, bis(2-hydroxyethyl)pyridylmethylamine], for which the “cytotoxicity of the ligands (in words)” value in [1] is “did not exhibit any cytotoxicity”.

Turning to `O=C1[O][Pt]2([NH][C@@H]3CCCC[C@H]3[NH]2)[O]C1=O` [Oxaliplatin], the IC50 in series [2] was found to be 0.6 ± 0.1 µM; in series [3], 5.7 ± 0.2 µM; in series [4] it was 7 ± 0.6 µM; in [5], 9.8 ± 0.3 µM; in series [6] it was 4.5 ± 0.3 µM; in series [7], 3.1 ± 0.2 µM. In the series on DU-145 cells, the “increase in cell killing efficiency in presence of verapamil” value stood at 8 times.

For the compound `COc1cc2c(c(OC)c1OC)-c1ccc(OC)c(=O)cc1[C@@H](NC(C)=O)CC2` [colchicine, Colchicine], in [8], the “organization of microtubule network (positive control)” value is listed as “disruption of microtubule network”.

The values above are taken from article PMC7174022 (Dalton transactions (Cambridge, England : 2003), 2020).
